The test system of this data set is GST-RXR197-462 interaction with in vitro translated TBP. Description: GST pull-down RXR-TBP interaction assay in vitro. The format is binding, human. The note with it: 1.0 μM 9-cis retinoic acid in all buffers; quantitated by phosphorimaging. The text has this: GST-RXR197-462 was constructed by PCR amplification of the appropriate sequences from human RXRα. The amplification products were cloned into EcoRI-BamHI digested pGEX2TK. All PCR-derived constructs were verified by sequencing. The plasmid pGEX-TBP was the kind gift of Dr. I. Verma (Salk Institute; see Kerr et al., in Nature 365:412-419 (1993)). Mammalian expression constructs expressing the ligand biding domains of human RXRα, human RARα and human TRβ have been described elsewhere (Forman et al., Cell 81:541-550 (1995)).
GST-fusion proteins were induced, solubilized and bound to glutathione beads following the manufacturer's procedures (LKB-Pharmacia). After binding to glutathione beads, 15 μl of the suspension was incubated with 1 to 2 μl of the appropriate ^35 S-labeled in vitro translated protein for 1 hour in 500 μl of NETN (20 mM Tris-HC1, pH 7.5, 100 mM KC1, 0.7 mM EDTA, 0.5% NP40, 1 mM PMSF). Following incubation, the beads were washed three times with NETN. […]
Thus GST pull-down experiments were carried out as follows. TBP was in vitro transcribed and translated as described above, and incubated with equal amounts of immobilized GST-RXR197-462 or GST-RXR-E453K/E456K) as determined by coomassie stained gels. […] Little or no interaction between TBP and GST alone is detected under these conditions.

SMILES strings stand for the structures.

Regarding `CC1=C(/C=C/C(C)=C\C=C\C(C)=C\C(=O)O)C(C)(C)CCC1` [9-cis retinoic acid], the “stimulation of the RXR-TBP interaction in vitro by addition of ligand” value is recorded as 3-5 fold.
